In the CheMixHub viscosity set:

Test: xn = mol fraction of the nth substance listed

C1CCCC1 + C1CCCCC1
303.15 K, 101 kPa
Details	viscosity [mPa·s]
x1 = 0.1022	0.7604
x1 = 0.2029	0.6988
x1 = 0.2998	0.6457
x1 = 0.3944	0.599
x1 = 0.4949	0.5545
x1 = 0.5917	0.5159
x1 = 0.6949	0.4788
x1 = 0.7843	0.4494
x1 = 0.8966	0.4147

COC(=O)CCCCC(=O)OC + C1CCOC1
viscosity [mPa·s], 101 kPa
Details	293.15 K	298.15 K	303.15 K	308.15 K	313.15 K	318.15 K	323.15 K
x1 = 0.1	0.6562	0.6229	0.5909	0.5598	0.5294	0.4989	0.4706
x1 = 0.2	0.8354	0.7852	0.7403	0.6982	0.6588	0.6205	0.5877
x1 = 0.3	1.042	0.9731	0.9111	0.8539	0.8024	0.7543	0.7132
x1 = 0.3994	1.277	1.183	1.1	1.026	0.958	0.906	0.8459
x1 = 0.5001	1.545	1.42	1.311	1.217	1.134	1.063	0.9929
x1 = 0.5909	1.811	1.652	1.517	1.4	1.299	1.206	1.132
x1 = 0.5999	1.838	1.676	1.541	1.421	1.315	1.221	1.146
x1 = 0.7003	2.163	1.956	1.78	1.63	1.506	1.382	1.302
x1 = 0.7999	2.514	2.255	2.042	1.858	1.7	1.556	1.458
x1 = 0.8937	2.866	2.555	2.298	2.08	1.892	1.731	1.609
x1 = 0.8996	2.888	2.574	2.314	2.095	1.905	1.742	1.619

NCCO + C1COCCO1
101 kPa
Details	viscosity [mPa·s]
298.15 K, x2 = 0.0597	16.05
318.15 K, x2 = 0.5716	2.255

OCc1ccccc1 + C1COCCO1
viscosity [mPa·s], 101 kPa
Details	x1 = 0.201	x1 = 0.2986	x1 = 0.4001	x1 = 0.4991	x1 = 0.7017	x1 = 0.9009
303.15 K	1.398	1.609	1.842	2.149	2.975	4.03
308.15 K	1.288	1.456	1.679	1.92	2.615	3.54
313.15 K	1.178	1.385	1.553	1.797	2.387	3.199

C1CCCC1 + C1COCO1
viscosity [mPa·s], 101.3 kPa
Details	x1 = 0.0988	x1 = 0.1997	x1 = 0.3005	x1 = 0.3997	x1 = 0.4992	x1 = 0.5979	x1 = 0.7027	x1 = 0.7987	x1 = 0.8995
298.15 K	0.5513	0.5176	0.4908	0.4685	0.4495	0.434	0.4216	0.4149	0.4124
313.15 K	0.4666	0.438	0.415	0.3968	0.3804	0.3679	0.3581	0.352	0.351

CCC(C)CC(C)C (stereo not given) + C1C[C@@H]2[C@H]3CC[C@H](C3)[C@@H]2C1
viscosity [mPa·s], 100 kPa
Details	x2 = 0.1017	x2 = 0.2008	x2 = 0.3005	x2 = 0.4002	x2 = 0.5006	x2 = 0.6001	x2 = 0.7001	x2 = 0.8012	x2 = 0.8999
293.15 K	0.538	0.616	0.717	0.847	1.007	1.216	1.478	1.84	2.322
298.15 K	0.511	0.582	0.674	0.792	0.937	1.126	1.361	1.685	2.114
303.15 K	0.487	0.552	0.636	0.744	0.876	1.048	1.261	1.552	1.937
308.15 K	0.465	0.524	0.602	0.7	0.822	0.979	1.171	1.435	1.781
313.15 K	0.445	0.5	0.571	0.662	0.772	0.916	1.092	1.331	1.645

CCC(=O)CC + CC(=O)CC(C)C
298.15 K, 101 kPa
Details	viscosity [mPa·s]
x2 = 0.0749	0.581
x2 = 0.1609	0.575
x2 = 0.3004	0.571
x2 = 0.4466	0.566
x2 = 0.5932	0.562
x2 = 0.7509	0.558
x2 = 0.8066	0.553
x2 = 0.8789	0.548

C1CCCC1 + CC(C)=O
viscosity [mPa·s], 101.33 kPa
Details	293.15 K	298.15 K	303.15 K
x1 = 0.0453	0.318	0.308	0.29
x1 = 0.0935	0.319	0.304	0.291
x1 = 0.1869	0.319	0.304	0.289
x1 = 0.2786	0.324	0.309	0.294
x1 = 0.3922	0.333	0.318	0.303
x1 = 0.517	0.344	0.327	0.311
x1 = 0.6026	0.357	0.338	0.321
x1 = 0.6876	0.367	0.347	0.332
x1 = 0.795	0.385	0.365	0.347
x1 = 0.9016	0.408	0.39	0.37
x1 = 0.9511	0.419	0.397	0.377

Nc1ccccc1[N+](=O)[O-] + CC(C)=O
viscosity [mPa·s], 101 kPa
Details	298.15 K	303.15 K	308.15 K	313.15 K
x1 = 0.3297	1.229	1.142	1.059	0.9826
x1 = 0.5407	2.366	2.175	1.994	1.817

OCc1ccccc1 + CC(C)=O
viscosity [mPa·s], 101 kPa
Details	x1 = 0.2007	x1 = 0.2986	x1 = 0.4007	x1 = 0.5002	x1 = 0.7013	x1 = 0.9003
303.15 K	0.506	0.651	0.894	1.204	2.122	3.544
308.15 K	0.495	0.632	0.861	1.11	1.857	3.118
313.15 K	0.479	0.603	0.807	1.054	1.74	2.826

C1CCCC1 + CC(C)CCO
viscosity [mPa·s], 101 kPa
Details	298.15 K	308.15 K
x1 = 0.0443	3.482	2.238
x1 = 0.0808	3.173	2.06
x1 = 0.1182	2.966	1.962
x1 = 0.2087	2.37	1.573
x1 = 0.3063	1.857	1.278
x1 = 0.3959	1.511	1.09
x1 = 0.521	1.086	0.7741
x1 = 0.616	0.8169	0.6771
x1 = 0.7042	0.6669	0.5329
x1 = 0.8044	0.5675	0.4453
x1 = 0.8984	0.4649	0.3966
x1 = 0.9358	0.4361	0.3784
x2 = 0.0075	0.4035	0.353

C1CCCC1 + CC(C)CO
viscosity [mPa·s], 101 kPa
Details	298.15 K	308.15 K
x1 = 0.0603	2.848	1.934
x1 = 0.1025	2.58	1.68
x1 = 0.1812	2.236	1.478
x1 = 0.2538	1.84	1.237
x1 = 0.3617	1.355	0.9824
x1 = 0.4947	0.9586	0.7014
x1 = 0.5816	0.8054	0.6185
x1 = 0.6617	0.6549	0.5283
x1 = 0.7863	0.5622	0.4429
x1 = 0.8809	0.4552	0.3863
x1 = 0.9205	0.4381	0.3695
x1 = 0.9474	0.4233	0.3609

CN1CCCC1=O + CC(C)O
298.15 K, 101 kPa
Details	viscosity [mPa·s]
x1 = 0.0609	1.8
x1 = 0.1034	1.703
x1 = 0.1399	1.641
x1 = 0.1993	1.57
x1 = 0.2332	1.539
x1 = 0.3074	1.5
x1 = 0.3626	1.454
x1 = 0.4127	1.45
x1 = 0.4612	1.481
x1 = 0.5022	1.488
x1 = 0.5599	1.497
x1 = 0.6107	1.511
x1 = 0.6683	1.53
x1 = 0.7081	1.543
x1 = 0.7567	1.561
x1 = 0.794	1.579
x1 = 0.8562	1.608
x1 = 0.9199	1.633

OCc1ccccc1 + CC(C)O
viscosity [mPa·s], 101 kPa
Details	x1 = 0.076	x1 = 0.1562	x1 = 0.2409	x1 = 0.3305	x1 = 0.4254	x1 = 0.5262	x1 = 0.6334	x1 = 0.7476	x1 = 0.8695
298.15 K	2.033	2.167	2.366	2.607	2.88	3.203	3.57	3.975	4.423
303.15 K	1.776	1.896	2.06	2.258	2.486	2.756	3.06	3.4	3.785
308.15 K	1.532	1.649	1.796	1.975	2.172	2.406	2.675	2.975	3.304
313.15 K	1.338	1.432	1.556	1.701	1.87	2.07	2.303	2.557	2.828
